Measurements from PMC9925730, “Controlled sequential in situ self-assembly and disassembly of a fluorogenic cisplatin prodrug for cancer theranostics” (Nature Communications, 2023).
Where “and” joins values, the source holds several entries; their conditions need not be identical. Identical values can stand only once.

Legend:
s.c. HeLa tumors = experiment: Biodistribution study of Pt (ICP-OES); assay type: in vivo, mice
[1] = Side toxicity in s.c. HeLa tumor-bearing mice (body weight, BUN, CRE, H&E)
[2] = tested on: supercoiled pBR322 plasmid DNA; experiment: Ability to break DNA double strand (agarose gel electrophoresis); assay type: biochemical; conditions: 100 μM, 37 °C, 16 h
Procedure: Evaluation of the ability to break DNA double strand
by different species of Pt compounds. (a) Agarose gel electrophoresis of supercoiled
pBR322 plasmid DNA (10 ng/μL) after incubating with indicated conditions.
represents the linear DNA marker ladder (500-12000 bp); Lane i: DNA; Lane ii: DNA
+ GSH (2 mM); Lane iii: DNA + CDDP (100 μM); Lane iv: DNA + CDDP (100 μM)
+ GSH (2 mM); Lane v: DNA + P-CyPt (100 μM); Lane vi: DNA + P-CyPt (100 μM)
+ GSH (2 mM), Lane vii: DNA +P-CyPt (100 μM) + ALP (500 U/L), Lane viii: DNA
+P-CyPt (100 μM) + ALP (500 U/L) +GSH (2 mM); (b) Agarose gel electrophoresis
of supercoiled pBR322 plasmid DNA (20 ng/μL) after incubating with varying
concentrations of P-CyPt (0, 1, 2, 5, 10, 20, 50 and 100 μM) respectively) plus ALP
(500 U/L), followed by incubation with GSH (2 mM) in Tris buffer at 37 °C for 16 h.
One representative experiment out of two is shown.

[3] = Urine and faeces analysis by HPLC (mCy-containing compounds); assay type: in vivo, mice
HeLa cells = experiment: ICP-OES analysis of Pt in HeLa cells (uptake); assay type: cell-based; conditions: Supplementary Table S1
Procedure: Supplementary Table 1. ICP-OES analysis of Pt in HeLa cells. a Pt drugs Pt element per cell Percentage of Pt element […]
a HeLa cells were untreated or pre-treated with Na3VO4 (10 mM) for 20 min and then incubated with indicated Pt drug (10 μM) for 1 h. Then, the cells were trypsinized, collected, and the cell numbers were counted and digested with trace metal concentrated HNO3 (65~70%) and HCl (36~38%). The amount of Pt element was determined by […]
b Pt per cell represents the average amount of Pt element in one HeLa cell, which was calculated by dividing the total amount of Pt element in cells by the cell number. c Percentage of Pt taken up by cells was calculated by dividing the total amount of Pt elements in cells by the amount of Pt drugs added. Values denote mean ± s.d. (n = 3 independent experiments). […]
The cell […]
lysates were separated according to a reported fragmentation procedure to obtained different cell fractions: pellet sample N (nuclei) was separated by 600 g for 10 min; pellet sample L (lysosomes and mitochondria) separated by 15000 g for 5 min; pellet sample M (plasma membrane) separated 100000g for 60 min and the remaining supernatant was soluble portion cytoplasm named as cell pellet C (cytosol) Pellets N, L, and M were all re-dispersed in 200 μL of D.I. water. Then, the solutions were collected and dropped on a carbon-coated copper grid, followed by freeze-drying respectively. The samples were then examined in a JEM-2800 Transmission Electron […]
Quantitative analysis of Pt in HeLa cells and different subcellular organelles. HeLa […]
cells were seeded in 10-cm dishes at a density of 4×10^6 cells/well and allowed to grow overnight. The cells were incubated with P-CyPt (10 μM), PtIVNPs (10 μM) and CDDP (10 μM) for 1 h, respectively. In P-CyPt + Na3VO4 group, HeLa cells were first incubated with Na3VO4 (10 mM) for 20 min, and then incubated with P-CyPt (10 μM) for another 60 min. After being washed with PBS for three times, the cells were trypsinized, centrifuged and counted. For Pt distribution analysis, the cells were treated with P-CyPt (10 μM) or CDDP (10 μM) for 1 h, and then washed with PBS for three times, followed by incubation with fresh medium for another 24 h. After that, cells were washed gently with 2 mL PBS once. The cells were trypsinized, centrifuged and counted. The cell lysates were separated according to a reported fragmentation procedure to obtained different cell fractions, including N (nuclei), M (plasma membrane), L (lysosomes and mitochondria) and C (cytosol). The Cells and different cell fractions were digested with concentrated HNO3 (65~70%) and HCl (36~38%) at 90 °C for 24 h. The solution was diluted to 5 mL 2% HNO3 and 5% HCl solution, and the concentration of Pt element was measured by ICP-OES, which was further applied to calculate the amount of Pt in cells and subcellular organelles.
Flow cytometry analysis of HeLa cell death. Approximately 2×10^5 cells/well HeLa cells in 2 mL DMEM medium were seeded onto 6-well plates and allowed to grow overnight. The medium was replaced with 1 mL of fresh medium containing P-CyPt (20 μM), PtIVNPs (20 μM) and CDDP (20 μM), respectively. After 2 h incubation, medium was removed and cells were washed with PBS for three times. Then, cells were incubated with fresh medium for another 48 h to induce different levels of apoptosis.
After gentle washing with PBS (×1), the cells were detached from the plates with trypsin (500 μL per well), and the cell pellets were collected after centrifugation at […] at 4 °C for 4 min. After washing with PBS, the pellets were re-suspended in 500 μL PBS buffer and stained with the annexin V-FITC/PI double staining apoptosis detection kit for flow cytometry. All assays were performed according to the manufacturer instructions, and the cell population was analyzed by annexin V-FITC and PI channels. The count number for each flow cytometry analysis was ~5000 to […]

[4] = Time period 0-2 h, individual mice, matrix and injected agent not given
[5] = Time period 0-2 h, mean of 3 mice, matrix and injected agent not given
[6] = Time period 2-4 h, individual mice
[7] = Time period 2-4 h, mean of 3 mice
[8] = Time period 4-8 h, individual mice
[9] = Time period 4-8 h, mean of 3 mice
[10] = Time period 8-12 h, mean of 3 mice
[11] = after i.v. preformed PtIVNPs, 2-4 h
[12] = after i.v. preformed PtIVNPs, 4-8 h
[13] = after i.v. preformed PtIVNPs, 8-12 h

[NH2][Pt]([NH2])([Cl])[Cl] [CDDP, cisplatin]
organ with the highest ID% g^−1 (s.c. HeLa tumors; 4 h post i.v. injection): kidneys | ID% g^−1 of Pt in tumors (s.c. HeLa tumors; s.c. HeLa tumors, 4 h post i.v. (100 μM, 200 μL), ICP-OES): ~ 3.6% | body weight during treatment ([1]; 2.25 mg kg^−1 Pt i.v. x5, 21 days): obviously decreased | increase of blood urea nitrogen (BUN) level ([1]; day 21): ~ 1.6 fold | increase of creatinine (CRE) level ([1]; day 21): ~ 1.4 fold | effect on supercoiled pBR322 DNA ([2]; plus GSH (2 mM)): prevent its binding with the DNA double strand | effect on supercoiled pBR322 DNA ([2]; without GSH): cannot obviously relax or break

CC1(C)C(/C=C/C2=C3Oc4cc(O)c(Cl)cc4C=C3CCC2)=[N+](CCCNC(=O)[C@@H](Cc2ccccc2)NC(=O)[C@@H](Cc2ccccc2)NC(=O)CCC(=O)[O][Pt]([NH2])([NH2])([OH])([Cl])[Cl])c2ccccc21 [CyPt]
Compound found in excreta (%), Supplementary Table S5 [3, 4]: 1.0169% and 1.15% and 0.9269% | Compound found in excreta (%), Supplementary Table S6 [3, 4]: 0.0316% and 0.04969% and 0.02632% | Compound found in excreta (%), Supplementary Table S7 [3, 4]: 0% | Compound found in excreta (%), Supplementary Table S8 [3, 4]: 0.5086% and 0.616% and 0.02021% | Compound found in excreta (%), Supplementary Table S5 [3, 5]: 1.03% | Compound found in excreta (%), Supplementary Table S6 [3, 5]: 0.0359% | Compound found in excreta (%), Supplementary Table S7 [3, 5]: 0.00% | Compound found in excreta (%), Supplementary Table S8 [3, 5]: 0.38% | Compound found in excreta (%), Supplementary Table S5 [3, 6]: 0.5615% and 0.6076% and 0.4976% | Compound found in excreta (%), Supplementary Table S6 [3, 6]: 0.965% and 1.15% and 0.7153% | Compound found in excreta (%), Supplementary Table S7 [3, 6]: 2.308% and 2.538% and 1.332% | Compound found in excreta (%), Supplementary Table S8 [3, 6]: 12.9072% and 11.8054% and 9.624% | Compound found in excreta (%), Supplementary Table S5 [3, 7]: 0.56% | Compound found in excreta (%), Supplementary Table S6 [3, 7]: 0.94% | Compound found in excreta (%), Supplementary Table S7 [3, 7]: 2.06% | Compound found in excreta (%), Supplementary Table S8 [3, 7]: 11.45% | Compound found in excreta (%), Supplementary Table S5 [3, 8]: 0.2738% and 0.2968% and 0.2509% | Compound found in excreta (%), Supplementary Table S6 [3, 8]: 10.4273% and 10.6083% and 7.985% | Compound found in excreta (%), Supplementary Table S7 [3, 8]: 3.373% and 3.391% and 1.995% | Compound found in excreta (%), Supplementary Table S8 [3, 8]: 11.1798% and 12.4002% and 9.36% | Compound found in excreta (%), Supplementary Table S5 [3, 9]: 0.27% | Compound found in excreta (%), Supplementary Table S6 [3, 9]: 9.67% | Compound found in excreta (%), Supplementary Table S7 [3, 9]: 2.92% | Compound found in excreta (%), Supplementary Table S8 [3, 9]: 10.98% | Compound found in excreta (%), Supplementary Table S8 ([3]; Time period 8-12 h, individual mice): 1.288% and 2.706% and 1.988% | Compound found in excreta (%), Supplementary Table S5 [3, 10]: 0.00% | Compound found in excreta (%), Supplementary Table S6 [3, 10]: 0.76% | Compound found in excreta (%), Supplementary Table S7 [3, 10]: 1.17% | Compound found in excreta (%), Supplementary Table S8 [3, 10]: 1.99% | percentage excreted to the faeces (HPLC) ([3]; after i.v. P-CyPt, 2-4 h): 0.94 ± 0.22% | percentage excreted to the urine (HPLC) ([3]; after i.v. P-CyPt, 2-4 h): 0.56 ± 0.055% | percentage excreted to the faeces (HPLC) ([3]; after i.v. P-CyPt, 4-8 h): 9.67 ± 1.46% and ~ 9.7% | percentage excreted to the urine (HPLC) ([3]; after i.v. P-CyPt, 4-8 h): 0.27 ± 0.23% | percentage excreted to the faeces (HPLC) ([3]; after i.v. P-CyPt, 8-12 h): 0.76 ± 0.14% | percentage excreted to the urine (HPLC) ([3]; after i.v. P-CyPt, 8-12 h): 0% | percentage excreted to the faeces (HPLC) [3, 11]: 11.44 ± 1.67% | percentage excreted to the urine (HPLC) [3, 11]: 2.06 ± 0.64% | percentage excreted to the faeces (HPLC) [3, 12]: 10.98 ± 1.53% | percentage excreted to the urine (HPLC) [3, 12]: 2.92 ± 0.80% | percentage excreted to the faeces (HPLC) [3, 13]: 1.99 ± 0.71% | percentage excreted to the urine (HPLC) [3, 13]: 1.16 ± 0.43% | Amount of Pt (HeLa cells; individual samples): 1.96 fmol/cell and 1.6407 fmol/cell and 1.595 fmol/cell | Total amount of Pt (HeLa cells; individual samples): 2.9% and 2.428% and 2.36% | Amount of Pt (HeLa cells; mean of 3 samples): 1.7317 fmol/cell | Total amount of Pt (HeLa cells; mean of 3 samples): 2.563%
